Assay results: ChEMBL document CHEMBL1201862, “PubChem BioAssay data set” (2004)
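The compound was tested at five concentrations on cells cultured in 96-well plates, with a 48-hour exposure period. The concentration for 50% growth inhibition is given as GI50.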 Calls of active or inactive are those of the source. No stated cut-off is given here; in the data, active = GI50 up to about 1.1 µM and inactive = higher. Residues, ends and D or L forms follow the SMILES beside them. *: point of attachment. Fmoc = O=C(OCC1c2ccccc2-c2ccccc21)*; Boc = CC(C)(C)OC(=O)*

Legend:
Assay in all cases: inhibition of tumour cell growth, NCI panel, 48 h
[1] = tested on: BT-549
[2] = tested on: CCRF-CEM
[3] = tested on: COLO 205
[4] = tested on: EKVX
[5] = tested on: HCT-15
[6] = tested on: HL-60
[7] = tested on: HOP-62
[8] = tested on: HOP-92
[9] = tested on: M14
[10] = tested on: MCF7
[11] = tested on: NCI-H23
[12] = tested on: NCI-H460
[13] = tested on: OVCAR-8
[14] = tested on: RXF 393
[15] = tested on: SF-295
[16] = tested on: SF-539
[17] = tested on: SK-OV-3
[18] = tested on: T47D
[19] = tested on: U-251
[20] = tested on: SNB-78

Row | Compound | GI50 [1] | GI50 [2] | GI50 [3] | GI50 [4] | GI50 [5] [µM] | GI50 [6] | GI50 [7] | GI50 [8] | GI50 [9] | GI50 [10] | GI50 [11] | GI50 [12] | GI50 [13] | GI50 [14] | GI50 [15] | GI50 [16] | GI50 [17] | GI50 [18] | GI50 [19] | GI50 [20]
1 | C[C@]12CC[C@H]3[C@@H](CCC4=CC(=O)CC[C@@H]43)[C@@H]1CC[C@]2(O)C(N)=O | > 100 µM (inactive) | > 100 µM (inactive) | > 100 µM (inactive) | > 100 µM (inactive) | > 100 | > 100 µM (inactive) | > 100 µM (inactive) | > 100 µM (inactive) | > 100 µM (inactive) | > 100 µM (inactive) | > 100 µM (inactive) | > 100 µM (inactive) | > 100 µM (inactive) | > 100 µM (inactive) | > 100 µM (inactive) | > 100 µM (inactive) | > 100 µM (inactive) | > 100 µM (inactive) | > 100 µM (inactive) | 
2 | NC1=NC(=O)C(CC(=O)Nc2ccc(Cl)cc2Cl)S1 (stereo unspecified) |  | 5.13 µM (inactive) | > 100 µM (inactive) | > 100 µM (inactive) | > 100 |  | > 100 µM (inactive) |  | > 100 µM (inactive) |  | > 100 µM (inactive) | > 100 µM (inactive) | > 100 µM (inactive) |  | > 100 µM (inactive) | > 100 µM (inactive) | > 100 µM (inactive) |  | > 100 µM (inactive) | > 100 µM (inactive)
3 | COC(=O)/C(=C(\C)NC(C)=O)c1c(C(=O)OC)[nH]c2ccccc12 | > 100 µM (inactive) | > 100 µM (inactive) | > 100 µM (inactive) | > 100 µM (inactive) | > 100 | > 100 µM (inactive) | > 100 µM (inactive) | > 100 µM (inactive) | > 100 µM (inactive) | > 100 µM (inactive) | > 100 µM (inactive) | > 100 µM (inactive) | > 100 µM (inactive) | > 100 µM (inactive) | > 100 µM (inactive) | > 100 µM (inactive) | > 100 µM (inactive) | > 100 µM (inactive) | > 100 µM (inactive) | 
4 | O=[N+]([O-])c1ccc2c(c1)/C(=N/N=C1c3ccccc3Cc3ccccc31)c1cc([N+](=O)[O-])cc([N+](=O)[O-])c1-2 | 1.52 µM (inactive) | 1.75 µM (inactive) | 3.21 µM (inactive) | 5.12 µM (inactive) | 2.14 | 2.26 µM (inactive) | 3.01 µM (inactive) | 2.17 µM (inactive) | 2.49 µM (inactive) | 1.65 µM (inactive) | 1.96 µM (inactive) | 3.14 µM (inactive) | 1.67 µM (inactive) | 2.61 µM (inactive) | 1.93 µM (inactive) | 2.99 µM (inactive) | 14.2 µM (inactive) | 1.78 µM (inactive) | 3.24 µM (inactive) | 
5 | O=C1CC(c2ccccc2Cl)C2(C(=O)NC(=S)NC2=O)C(c2ccccc2Cl)C1 (stereo unspecified) | 30.3 µM (inactive) | 35.6 µM (inactive) | 31.3 µM (inactive) | 37.6 µM (inactive) | 21.1 | 36.5 µM (inactive) | 34.2 µM (inactive) | 0.284 µM (active) | 17.1 µM (inactive) | 18.3 µM (inactive) | 16.7 µM (inactive) | 20 µM (inactive) | 23 µM (inactive) | 16.9 µM (inactive) | 22.9 µM (inactive) | 58.7 µM (inactive) | 43 µM (inactive) | 45.6 µM (inactive) | 15.3 µM (inactive) | 
6 | CCN(C)c1nc(N(C)CC)c2nc(N(C)CC)nc(N(C)CC)c2n1 | > 100 µM (inactive) | > 100 µM (inactive) | > 100 µM (inactive) | > 100 µM (inactive) | > 100 | > 100 µM (inactive) | > 100 µM (inactive) | > 100 µM (inactive) | > 100 µM (inactive) | > 100 µM (inactive) | > 100 µM (inactive) | > 100 µM (inactive) | > 100 µM (inactive) | > 100 µM (inactive) | > 100 µM (inactive) | > 100 µM (inactive) | > 100 µM (inactive) | > 100 µM (inactive) | > 100 µM (inactive) | 
7 | COc1cc(C(O)C(=O)c2nc3ccc([N+](=O)[O-])cc3nc2O)ccc1O (stereo unspecified) |  | 40.7 µM (inactive) | > 100 µM (inactive) | 90.6 µM (inactive) | > 100 | 70.5 µM (inactive) | > 100 µM (inactive) |  | > 100 µM (inactive) |  | > 100 µM (inactive) | > 100 µM (inactive) | > 100 µM (inactive) |  | > 100 µM (inactive) | 58.1 µM (inactive) | > 100 µM (inactive) |  | > 100 µM (inactive) | > 100 µM (inactive)
8 | O=C1c2ccccc2-c2nnc3c(c21)Cc1ccccc1C3 | > 10 µM (inactive) | > 10 µM (inactive) | > 10 µM (inactive) | > 10 µM (inactive) | > 10 | > 10 µM (inactive) | > 10 µM (inactive) | > 10 µM (inactive) | > 10 µM (inactive) | > 10 µM (inactive) | > 10 µM (inactive) | > 10 µM (inactive) | > 10 µM (inactive) | > 10 µM (inactive) | > 10 µM (inactive) | > 10 µM (inactive) | > 10 µM (inactive) | > 10 µM (inactive) | > 10 µM (inactive) | 
9 | Cc1csc2nc(-c3cccc([N+](=O)[O-])c3)c(/C=N/N=C(N)N)n12 | 1.1 µM (active) | 1.92 µM (inactive) | 1.78 µM (inactive) | 1.55 µM (inactive) | 1.71 | 1.25 µM (inactive) | 1.71 µM (inactive) | 0.0968 µM (active) | 1.71 µM (inactive) | 1.82 µM (inactive) | 1.71 µM (inactive) | 3.2 µM (inactive) | 1.74 µM (inactive) | 1.7 µM (inactive) | 1.69 µM (inactive) | 2.29 µM (inactive) | 1.82 µM (inactive) | 1.87 µM (inactive) | 1.67 µM (inactive) | 
10 | O=c1oc2cc(O)ccc2cc1-c1nc2ccccc2s1 | 16.9 µM (inactive) | 10.4 µM (inactive) | 0.109 µM (active) | 27.2 µM (inactive) | 20.1 | 16.1 µM (inactive) | 20.9 µM (inactive) | 27.7 µM (inactive) | 24.5 µM (inactive) | 23.9 µM (inactive) | 21.1 µM (inactive) | 21.2 µM (inactive) | 34.7 µM (inactive) | 31.7 µM (inactive) | 54.1 µM (inactive) | 24.7 µM (inactive) | 38.8 µM (inactive) | 31.3 µM (inactive) | 23 µM (inactive) | 
11 | CC(NNC(=O)c1ccncc1)c1ccc(Cl)c(Cl)c1 (stereo unspecified) | > 100 µM (inactive) | 43.4 µM (inactive) | > 100 µM (inactive) | > 100 µM (inactive) | > 100 | 34.8 µM (inactive) | > 100 µM (inactive) | > 100 µM (inactive) | 67.9 µM (inactive) | > 100 µM (inactive) | 57.7 µM (inactive) | > 100 µM (inactive) | > 100 µM (inactive) | > 100 µM (inactive) | > 100 µM (inactive) | > 100 µM (inactive) | 19.6 µM (inactive) | 66.4 µM (inactive) | > 100 µM (inactive) | 
12 | CC(C)(C)OC(=O)NCCCCC(NC(=O)C(Cc1c[nH]c2ccccc12)NC(=O)OCC1c2ccccc2-c2ccccc21)C(=O)N1CCCC1C(=O)NCC(N)=O (stereo unspecified) (Fmoc-WK(Boc)PG-NH2; configuration not given here) | > 100 µM (inactive) | > 100 µM (inactive) | > 100 µM (inactive) | > 100 µM (inactive) | > 100 | > 100 µM (inactive) | > 100 µM (inactive) | > 100 µM (inactive) | 60.5 µM (inactive) | > 100 µM (inactive) | > 100 µM (inactive) | > 100 µM (inactive) | > 100 µM (inactive) | > 100 µM (inactive) | 60.3 µM (inactive) | > 100 µM (inactive) | 1.59 µM (inactive) | > 100 µM (inactive) | > 100 µM (inactive) | 
13 | C/C(=N\Nc1ccc2ccccc2n1)c1ccccc1O | > 100 µM (inactive) | 3.33 µM (inactive) | > 100 µM (inactive) | 19.6 µM (inactive) | 11.4 | > 100 µM (inactive) | 14 µM (inactive) | > 100 µM (inactive) | > 100 µM (inactive) | 5.31 µM (inactive) | > 100 µM (inactive) | > 92.5 µM (inactive) | 56.1 µM (inactive) | > 72.6 µM (inactive) | 8.07 µM (inactive) | > 68.9 µM (inactive) | 29.8 µM (inactive) | 3.96 µM (inactive) | 54.1 µM (inactive) | 
14 | COC1CC(O[C@H]2CC[C@@]3(C)[C@@H](CC[C@]4(O)[C@@H]3CC[C@]3(C)[C@@H](C(C)=O)[C@H](OC(=O)CC(C)C)[C@@H](OC(=O)c5ccccc5)[C@@]34O)C2)OC(C)C1OC1CC(OC)C(OC2OC(C)C(O)C(OC)C2O)C(C)O1 (stereo partly specified) | > 25 µM (inactive) | 17.8 µM (inactive) | 5.13 µM (inactive) | 9.68 µM (inactive) | 9.95 | 7.19 µM (inactive) | 16 µM (inactive) | 6.55 µM (inactive) | 16.1 µM (inactive) | 11.4 µM (inactive) | > 25 µM (inactive) | 9.53 µM (inactive) | 20 µM (inactive) | > 25 µM (inactive) | 16.9 µM (inactive) | > 25 µM (inactive) | > 25 µM (inactive) | 8 µM (inactive) | 18 µM (inactive) | 
15 | CN1c2ccccc2S(=O)(=O)n2c(COc3ccccc3)nnc21 | 64.4 µM (inactive) | > 100 µM (inactive) | > 100 µM (inactive) | > 100 µM (inactive) | > 100 | 62.5 µM (inactive) | 35.4 µM (inactive) | 56.5 µM (inactive) | > 100 µM (inactive) | > 100 µM (inactive) | > 100 µM (inactive) | > 100 µM (inactive) | > 100 µM (inactive) | > 100 µM (inactive) | 45.7 µM (inactive) | 62.8 µM (inactive) | > 100 µM (inactive) | > 100 µM (inactive) | > 100 µM (inactive) | 
